The target of the first assay is T1, HCV NS3-4A serine protease (full-length NS3-4A protein, genotype 1a, strain HCV-1) (Hepatitis C virus genotype 1a, UniProt P26664).
T1 construct: using the full-length NS3-4A protein (genotype 1a, strain HCV-1)
T1 sequence (P26664 1658-1711): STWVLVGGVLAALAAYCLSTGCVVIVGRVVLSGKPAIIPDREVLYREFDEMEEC
T1 sequence (P26664 1027-1657): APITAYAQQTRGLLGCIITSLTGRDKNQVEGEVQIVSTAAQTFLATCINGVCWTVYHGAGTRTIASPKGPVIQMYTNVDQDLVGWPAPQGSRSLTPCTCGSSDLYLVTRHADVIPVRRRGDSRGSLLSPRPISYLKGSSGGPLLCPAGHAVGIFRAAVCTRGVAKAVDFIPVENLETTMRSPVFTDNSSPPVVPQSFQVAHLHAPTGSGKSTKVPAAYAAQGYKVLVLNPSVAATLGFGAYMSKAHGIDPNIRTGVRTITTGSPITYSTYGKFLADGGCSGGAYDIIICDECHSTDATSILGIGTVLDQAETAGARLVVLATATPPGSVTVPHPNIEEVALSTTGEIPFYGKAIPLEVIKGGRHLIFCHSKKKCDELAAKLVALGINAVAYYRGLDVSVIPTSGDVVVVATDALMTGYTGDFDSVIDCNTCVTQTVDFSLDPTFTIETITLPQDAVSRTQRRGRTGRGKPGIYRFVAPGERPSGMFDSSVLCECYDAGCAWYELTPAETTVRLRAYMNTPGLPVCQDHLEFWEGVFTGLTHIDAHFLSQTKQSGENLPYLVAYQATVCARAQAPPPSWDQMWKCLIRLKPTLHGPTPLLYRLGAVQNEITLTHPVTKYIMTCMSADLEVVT
Briefly: HCV NS3-4A protease assay. The assay is classed as biochemical. Particulars: Protease IC50. The procedure:
The inhibitory activity of certain compounds of Table A against HCV NS3-4A serine protease is determined in a homogenous assay using the full-length NS3-4A protein (genotype 1a, strain HCV-1) and a commercially available internally-quenched fluorogenic peptide substrate as described by Taliani, M., et al. 1996 Anal. Biochem. 240:60-67, which is incorporated by reference in its entirety.
As usually defined, the IC50 is the concentration needed to halve the response being measured. In turn, `C=C[C@@H]1C[C@]1(NC(=O)[C@@H]1C[C@@]2(CN1C(=O)[C@@H](NC(=O)[C@@H](N1CCCC1=O)C(C)(C)C)C(C)(C)C)C(C)(C)C21CCC1)C(=O)NS(=O)(=O)C1CC1` [Compound 35, (5R,8S)-N-{(1R,2S)-1-[(cyclopropylsulfonyl)carba-moyl]-2-vinylcyclopropyl}-7-[(2S)-2-{[(2S)-3,3-dimethyl-2-(2-oxopyrrolidin-1-yl)butanoyl]amino}-3,3-dimethylbutanoyl]-10,10-dimethyl-7-azadispiro[3.0.4.1]decane-8-carboxamide] had an IC50 of 0.009 µM.
In the case of `C=C[C@@H]1C[C@]1(NC(=O)[C@@H]1C[C@@]2(CN1C(=O)[C@@H](NC(=O)[C@@H](NC(=O)[C@@H]1CCCCN1C(C)C)C(C)(C)CC)C(C)(C)C)C(C)(C)C21CCC1)C(=O)NS(=O)(=O)C1CC1` [Compound 36, (5R,8S)-N-{(1R,2S)-1-[(cyclopropylsulfonyl)carba-moyl]-2-vinylcyclopropyl}-7-[(2S)-2-{[(2S)-2-({[(2S)-1-isopropylpiperidin-2-yl]carbonyl}amino)-3,3-dimethylpentanoyl]amino}-3,3-dimethylbutanoyl]-10,10-dimethyl-7-azadispiro[3.0.4.1]decane-8-carboxamide], half-maximal inhibition (IC50) required 0.001 µM.
Still for that read-out and setting: next, `C=C[C@@H]1C[C@]1(NC(=O)[C@@H]1C[C@@]2(CN1C(=O)[C@@H](NC(=O)[C@@H]1CCCCCCCN3CCCC[C@H]3C(=O)N1)C(C)(C)C)C(C)(C)C21CCC1)C(=O)NS(=O)(=O)C1CC1` [Compound 38, (5R,8S)-N-{(1R,2S)-1-[(cyclopropylsulfonyl)carba-moyl]-2-vinylcyclopropyl}-7-[(2S)-3,3-dimethyl-2-({[(3S,15aS)-1-oxotetradecahydro-2H-pyrido[1,2-a][1,4]diazacyclododecin-3-yl]carbonyl}amino)butanoyl]-10,10-dimethyl-7-azadispiro[3.0.4.1]decane-8-carboxamide]: 0.008 µM.

The same assay, now with this note: read-out: Protease IC50.
On to `C=C[C@@H]1C[C@]1(NC(=O)[C@@H]1C[C@@]2(CN1C(=O)[C@@H](NC(=O)N[C@H](CC(=O)N(C)C)C(C)(C)C)C(C)(C)C)C(C)(C)C21CCC1)C(=O)NS(=O)(=O)C1CC1` [Compound 33, (5R,8S)-N-{(1R,2S)-1-[(cyclopropylsulfonyl)carba-moyl]-2-vinylcyclopropyl}-7-{(2S)-2-[({(1R)-1-[2-(dimethylamino)-2-oxoethyl]-2,2-dimethylpropyl}carbamoyl)amino]-3,3-dimethylbutanoyl}-10,10-dimethyl-7-azadispiro[3.0.4.1]decane-8-carboxamide], for which the IC50 turned out to be 1.4 µM.
In the case of `C=C[C@@H]1C[C@]1(NC(=O)[C@@H]1C[C@@]2(CN1C(=O)[C@@H](NC(=O)N[C@H](CC(=O)N1CCOCC1)C(C)(C)C)C(C)(C)C)C(C)(C)C21CCC1)C(=O)NS(=O)(=O)C1CC1` [Compound 34, (5R,8S)-N-{(1R,2S)-1-[(cyclopropylsulfonyl)carba-moyl]-2-vinylcyclopropyl}-7-[(2S)-2-({[(1R)-2,2-dimethyl-1-(2-morpholin-4-yl-2-oxoethyl)propyl]carbamoyl}amino)-3,3-dimethylbutanoyl]-10,10-dimethyl-7-azadispiro[3.0.4.1]decane-8-carboxamide], the 50% inhibitory concentration (IC50) stood at 2.15 µM.
On to `C=C[C@@H]1C[C@]1(NC(=O)[C@@H]1C[C@@]2(CN1C(=O)[C@@H](NC(=O)NC13CC4CC(CC(C4)C1)C3)C(C)(C)C)C(C)(C)C21CCC1)C(=O)NS(=O)(=O)C1CC1` [Compound 37, (5R,8S)-7-{(2S)-2-[(adamantan-1-ylcarbamoyl)amino]-3,3-dimethylbutanoyl}-N-{(1R,2S)-1-[(cyclopropylsulfonyl)carba-moyl]-2-vinylcyclopropyl}-10,10-dimethyl-7-azadispiro[3.0.4.1]decane-8-carboxamide], for which the IC50 was 0.045 µM.

For the origin of these results see patent US20110182850A1, “ORGANIC COMPOUNDS AND THEIR USES” (priority 2009, published 2011).
